US5840336A, “Two-phase matrix for sustained release drug delivery device” (Cygnus, Inc., priority 1995, dated 1998)

Key:
[1] = type: in vivo
Protocol: The effective dose for treating Parkinson's disease is estimated to be in the range of about 1 to 3 μg/kg/hr. Accordingly, for transdermal administration, the target flux of this drug (based on a 20 cm^2 delivery area) is estimated to be in the range of approximately 3-10 μg/cm^2 /hr.

D2 = details: cited from earlier work
[2] = pH 6
[3] = Solubility of the drug in pH 5.0 phosphate buffer receiver fluid; type: physicochemical

Row | solubility for the drug [3] | SMILES | target flux [1] | effective dose for treating Parkinson's disease ([1]; estimated) | selective D2 agonist (D2) | skin flux from liquid formulations [2]
1 |  | CCCN(CCc1cccs1)[C@H]1CCc2c(O)cccc2C1 [S(-)-2-(N-propyl-N-2-thienylethylamine)-5-hydroxytetralin] | 3-10 μg/cm^2 /hr | 1 to 3 µg/kg/h | selective D2 agonist | at or above the effective range
2 | reasonable solubility | Cc1cccc(CN2CCN(C)C[C@@H](NC(=O)c3n[nH]c4ccccc34)C2)c1.Cl.Cl [(R)-(-)-N-(1-Methyl-4-(3-methylbenzyl)hexahydro-1H-1,4-diazepin-6-yl)-1H-indazole-3-carboxamide dihydrochloride] |  |  |  | 
